The subject of test [1] is mouse neuroblastoma N2a cells. In words: Neurite outgrowth assay. Format: cell-based. The note with it: for neurite outgrowth / neurite outgrowth-promoting activity, comparison between compounds: 0.2 µM, 48 h treatment (Fig. 21(B)); for neurite outgrowth-promoting activity, comparison between compounds: structure-activity comparison; for dose-dependent neurite outgrowth activity: 0.02 - 2 µM, 48 h treatment (Fig. 21(C)). Here is the method: The Mouse Neuro-2a (N2a) cell line was obtained from the Japanese Collection of Research Bioresources (JCRB) Cell Bank. The N2a cells were plated at a concentration of 1 × 10^4 cells/mL in Dulbecco's modified Eagle's medium (hereinafter also referred to as DMEM) containing high glucose, 10% FBS, 100 U/mL penicillin, and 100 µg/mL streptomycin at 37 °C in a humidified atmosphere of 5% CO2.
For the neurite outgrowth assay, the medium was changed to DMEM supplemented with 2% FBS. After incubation with the test compounds, cell morphology was examined using a microscope (Olympus CKX41).
The differentiated cells were defined as those with at least one neurite that was longer than twice the diameter of the cell body. The results were expressed as the percentage of differentiated cells among the counted cells. These experiments were carried out in triplicate.

The target in test [2] is KDM5A (Homo sapiens, UniProt P29375). Nature of the test: KDM5A inhibitory activity, in vitro assay. Format: biochemical. The note with it: in vitro assay (Fig. 27).
For test [3], the target named is HDAC1 (Homo sapiens, UniProt Q13547). In words: HDAC1 inhibitory activity, in vitro assay. The format is biochemical. Particulars: in vitro assay (Fig. 27).
The target in test [4] is T1, KDM5A (Mus musculus, UniProt Q3UXZ9).
T1 construct: Western Blot-Detection of KDM5A Levels in N2a Cells; endogenous in cells; host or cells: N2a (mouse neuroblastoma neuro-2a) cells
Nature of the test: Western blot detection of KDM5A levels (degradation). Format: cell-based. The note with it: N2a cells. Here is the method: (§1) The N2a cells (5 × 10^5 cells/2 mL/dish) were treated for 24 h with the test compounds at the indicated concentrations in a 10% FBS-supplemented cell culture medium, and cells were collected and extracted with SDS sampling buffer. Protein concentrations of the lysates were determined using a BCA protein assay. Equivalent amounts of protein from each lysate were resolved in 5% to 20% SDS-polyacrylamide gels, and bands were transferred onto PVDF membranes (Millipore, #IPVH00010 for β-actin detection, #ISEQ10100 for H3, H3K4me3, and H3K27Ac detection). After blocking with TBS-T containing 5% skimmed milk, the transblotted membranes were probed with primary antibodies. The following antibodies were used as the primary antibodies: rabbit monoclonal KDM5A antibody (CST #3876, 1 : 1000 dilution); mouse monoclonal β-actin antibody (Santa Cruz, #sc-47778, 1 : 2000 dilution); rabbit polyclonal H3K4me3 antibody (Abcam, #ab8580, 1 : 5000 dilution); rabbit polyclonal H3K27Ac antibody (Abcam, #ab4729, 1 : 1000 dilution); or rabbit polyclonal histone H3 antibody (Abcam, #ab1791, 1 : 200000 dilution). […]

Test [5] relates to H3K4me3. Nature of the test: Western blot detection of H3K4me3 levels. Format: cell-based, Mouse. The note with it: N2a cells, 24 h treatment (Fig. 26). Here is the method:
as §1
Background: Immunoblotting shows a protein as a band on a membrane.

The subject of test [6] is H3K27Ac. Nature of the test: Western blot detection of H3K27Ac levels. Format: cell-based, Mouse. The note with it: N2a cells, 24 h treatment (Fig. 26). As to the method:
as §1

Entries after “also recorded” stand apart in the source; their conditions may differ. Where a name gives a salt, the structure may show the parent alone.

Here are results for six molecules from EP4775583A1, “COMPOUND OR SALT THEREOF, METHOD FOR PRODUCING SAME, PHARMACEUTICAL COMPOSITION CONTAINING COMPOUND OR SALT THEREOF, AND METHOD FOR PRODUCING SAME” (Celaid Therapeutics Inc., priority 2023, dated 2025).

T1 sequence (Q3UXZ9 whole entry): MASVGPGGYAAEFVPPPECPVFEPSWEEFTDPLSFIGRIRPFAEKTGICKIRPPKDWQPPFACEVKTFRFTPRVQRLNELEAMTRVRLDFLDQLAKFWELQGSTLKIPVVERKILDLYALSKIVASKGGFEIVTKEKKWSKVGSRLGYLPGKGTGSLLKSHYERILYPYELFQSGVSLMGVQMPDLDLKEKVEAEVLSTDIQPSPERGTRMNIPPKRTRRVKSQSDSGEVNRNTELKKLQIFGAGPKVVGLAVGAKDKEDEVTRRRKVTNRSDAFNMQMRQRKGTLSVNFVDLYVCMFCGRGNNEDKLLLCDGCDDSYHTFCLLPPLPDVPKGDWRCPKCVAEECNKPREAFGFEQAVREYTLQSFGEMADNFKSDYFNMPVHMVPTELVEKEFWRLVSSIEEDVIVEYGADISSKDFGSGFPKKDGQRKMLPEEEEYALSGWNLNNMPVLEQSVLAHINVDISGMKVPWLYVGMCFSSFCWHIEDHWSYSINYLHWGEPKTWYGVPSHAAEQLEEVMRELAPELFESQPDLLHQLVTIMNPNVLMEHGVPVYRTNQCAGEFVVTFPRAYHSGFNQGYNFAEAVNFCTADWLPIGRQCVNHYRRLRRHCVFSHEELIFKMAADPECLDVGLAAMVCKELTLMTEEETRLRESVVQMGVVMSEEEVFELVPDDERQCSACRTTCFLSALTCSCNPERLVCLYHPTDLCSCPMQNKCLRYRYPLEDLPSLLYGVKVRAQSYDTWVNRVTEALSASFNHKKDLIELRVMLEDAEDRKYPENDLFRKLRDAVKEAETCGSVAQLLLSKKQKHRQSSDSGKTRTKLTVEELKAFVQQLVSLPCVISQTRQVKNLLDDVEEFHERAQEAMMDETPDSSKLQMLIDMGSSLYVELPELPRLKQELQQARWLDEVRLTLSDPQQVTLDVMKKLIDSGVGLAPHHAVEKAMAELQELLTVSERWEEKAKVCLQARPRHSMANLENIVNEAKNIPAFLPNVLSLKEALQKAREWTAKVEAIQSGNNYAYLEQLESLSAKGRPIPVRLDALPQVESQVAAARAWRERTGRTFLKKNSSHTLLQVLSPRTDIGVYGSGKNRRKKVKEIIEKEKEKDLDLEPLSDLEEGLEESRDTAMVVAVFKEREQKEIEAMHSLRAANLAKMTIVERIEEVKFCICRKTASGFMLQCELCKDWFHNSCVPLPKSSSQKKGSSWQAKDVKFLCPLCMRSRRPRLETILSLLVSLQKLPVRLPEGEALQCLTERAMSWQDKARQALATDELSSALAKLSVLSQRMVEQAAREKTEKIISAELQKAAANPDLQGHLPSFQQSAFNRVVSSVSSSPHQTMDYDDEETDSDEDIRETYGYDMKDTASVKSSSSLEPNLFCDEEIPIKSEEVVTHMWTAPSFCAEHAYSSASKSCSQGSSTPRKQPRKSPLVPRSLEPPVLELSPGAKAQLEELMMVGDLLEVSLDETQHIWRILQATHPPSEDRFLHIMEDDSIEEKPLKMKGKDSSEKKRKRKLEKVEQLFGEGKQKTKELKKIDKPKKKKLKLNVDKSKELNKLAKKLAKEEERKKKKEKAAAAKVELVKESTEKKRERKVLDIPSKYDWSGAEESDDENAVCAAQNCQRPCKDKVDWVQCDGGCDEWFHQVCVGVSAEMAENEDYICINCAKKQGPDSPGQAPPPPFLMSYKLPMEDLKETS
Chain of HDAC1 (Q13547 whole entry, species assumed): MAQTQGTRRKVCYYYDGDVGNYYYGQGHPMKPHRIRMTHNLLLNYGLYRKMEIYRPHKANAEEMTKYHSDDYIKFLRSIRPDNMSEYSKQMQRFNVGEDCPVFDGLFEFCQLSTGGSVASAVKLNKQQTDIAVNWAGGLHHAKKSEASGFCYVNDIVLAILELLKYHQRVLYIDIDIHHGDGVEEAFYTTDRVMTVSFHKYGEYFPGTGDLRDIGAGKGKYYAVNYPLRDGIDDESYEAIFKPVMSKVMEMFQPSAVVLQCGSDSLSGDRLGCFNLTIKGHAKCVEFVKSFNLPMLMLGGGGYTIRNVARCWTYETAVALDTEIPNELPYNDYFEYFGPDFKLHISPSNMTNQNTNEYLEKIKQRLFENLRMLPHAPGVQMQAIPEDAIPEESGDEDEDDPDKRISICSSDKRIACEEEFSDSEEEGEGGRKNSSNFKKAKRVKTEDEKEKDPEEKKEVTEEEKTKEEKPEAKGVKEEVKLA
Chain of KDM5A (Homo sapiens, UniProt P29375) (P29375 whole entry, species assumed): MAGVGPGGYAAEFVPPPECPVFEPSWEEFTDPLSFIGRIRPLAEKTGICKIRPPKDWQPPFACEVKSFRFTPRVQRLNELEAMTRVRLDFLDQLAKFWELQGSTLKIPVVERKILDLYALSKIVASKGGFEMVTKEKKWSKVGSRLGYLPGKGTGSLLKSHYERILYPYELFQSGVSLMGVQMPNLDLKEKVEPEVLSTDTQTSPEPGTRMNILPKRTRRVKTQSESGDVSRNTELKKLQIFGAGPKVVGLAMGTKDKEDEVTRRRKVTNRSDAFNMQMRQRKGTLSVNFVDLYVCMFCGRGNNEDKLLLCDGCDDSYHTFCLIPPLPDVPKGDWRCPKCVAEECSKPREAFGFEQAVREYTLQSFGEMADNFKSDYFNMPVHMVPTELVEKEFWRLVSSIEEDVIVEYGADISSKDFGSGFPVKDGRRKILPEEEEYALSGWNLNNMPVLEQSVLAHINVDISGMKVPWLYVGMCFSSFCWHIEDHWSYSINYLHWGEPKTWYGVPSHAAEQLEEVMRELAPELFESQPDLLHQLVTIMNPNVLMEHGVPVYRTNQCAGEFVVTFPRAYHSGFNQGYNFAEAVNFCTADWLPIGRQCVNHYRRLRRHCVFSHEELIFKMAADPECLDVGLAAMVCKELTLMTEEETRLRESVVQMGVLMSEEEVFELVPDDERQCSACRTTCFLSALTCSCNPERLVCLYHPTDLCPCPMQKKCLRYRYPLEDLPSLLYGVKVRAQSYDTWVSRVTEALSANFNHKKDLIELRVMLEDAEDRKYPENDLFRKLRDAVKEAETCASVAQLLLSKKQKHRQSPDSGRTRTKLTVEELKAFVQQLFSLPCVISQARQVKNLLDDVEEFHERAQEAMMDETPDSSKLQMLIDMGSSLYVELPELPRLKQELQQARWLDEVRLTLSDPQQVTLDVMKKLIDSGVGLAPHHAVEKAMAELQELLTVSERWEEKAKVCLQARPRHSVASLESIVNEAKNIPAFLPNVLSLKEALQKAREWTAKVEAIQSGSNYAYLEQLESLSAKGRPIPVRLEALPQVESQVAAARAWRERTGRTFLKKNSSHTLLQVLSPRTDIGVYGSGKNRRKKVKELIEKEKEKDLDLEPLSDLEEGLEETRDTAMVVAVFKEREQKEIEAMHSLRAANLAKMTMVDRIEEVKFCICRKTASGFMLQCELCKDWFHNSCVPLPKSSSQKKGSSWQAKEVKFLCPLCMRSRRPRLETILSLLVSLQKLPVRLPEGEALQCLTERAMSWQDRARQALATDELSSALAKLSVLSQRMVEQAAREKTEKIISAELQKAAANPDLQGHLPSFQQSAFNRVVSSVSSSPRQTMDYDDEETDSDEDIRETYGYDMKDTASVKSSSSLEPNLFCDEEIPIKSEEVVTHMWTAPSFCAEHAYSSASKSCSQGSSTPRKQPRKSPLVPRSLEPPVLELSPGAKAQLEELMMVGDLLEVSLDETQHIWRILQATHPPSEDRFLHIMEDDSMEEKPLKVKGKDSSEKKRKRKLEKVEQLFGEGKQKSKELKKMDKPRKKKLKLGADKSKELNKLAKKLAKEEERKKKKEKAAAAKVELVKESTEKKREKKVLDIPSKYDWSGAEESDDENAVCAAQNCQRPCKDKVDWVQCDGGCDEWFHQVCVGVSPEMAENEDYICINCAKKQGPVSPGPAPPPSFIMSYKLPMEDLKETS

On to `CC(C)c1c(-c2ccc(CCN(C)CCCCCCC(=O)NCCOCCOCCOc3cccc4c3C(=O)N(C3CCC(=O)NC3=O)C4=O)cc2)[nH]c2c(C#N)cnn2c1=O` (centres unmarked) [Compound 14a, hydrochloride], for which the neurite outgrowth entry in test [1] (N2a cells) is “promoted neurite outgrowth”.
As for `CC(C)c1c(-c2ccc(CCN(C)CCCCCCCCCC(=O)NCCOCCOCCOc3cccc4c3C(=O)N(C3CCC(=O)NC3=O)C4=O)cc2)[nH]c2c(C#N)cnn2c1=O` (centres unmarked) [Compound 14b, 10-{[4-(3-Cyano-6-isopropyl-7-oxo-4,7-dihydropyrazolo[1,5-a]pyrimidin-5-yl)phenethyl](methyl)-amino}-N-{2-[2-(2,6-dioxopiperidin-3-yl)-1,3-dioxoindolin-4-yl]oxy}ethoxy}ethyl}decanamide Hydrochloride], in test [1] (N2a cells), the neurite outgrowth entry is “promoted neurite outgrowth” and the “neurite outgrowth-promoting activity, comparison between compounds” value was “stronger neurite outgrowth-promoting activity than compound 14a”.
Turning to `CC(C)c1c(-c2ccc(CCN(C)CCCCCCc3ccc(C(=O)NCCOCCOCCOc4cccc5c4C(=O)N(C4CCC(=O)NC4=O)C5=O)cc3)cc2)[nH]c2c(C#N)cnn2c1=O` (centres unmarked) [Compound 20a], the neurite outgrowth entry in test [1] (N2a cells) is listed as “promoted neurite outgrowth”.
On to `CC(C)c1c(-c2ccc(CCN(C)CCCCCCc3ccc(C(=O)NCCCCCCOc4cccc5c4C(=O)N(C4CCC(=O)NC4=O)C5=O)cc3)cc2)[nH]c2c(C#N)cnn2c1=O` (centres unmarked) [Compound 23a, 4-(6-{[4-(3-cyano-6-isopropyl-7-oxo-4,7-dihydropyrazolo[1,5-a]pyrimidin-5-yl)phenethyl](methyl)amino}hexyl)-N-(6-{[2-(2,6-dioxopiperidin-3-yl) -1, 3 - dioxoindolin-4-yl]oxy}hexyl) benzamide hydrochloride], for which, in test [1] (N2a cells), the neurite outgrowth result is listed as “promoted neurite outgrowth”.
On to `CC(C)c1c(-c2ccc(CCN(C)CCCCCCc3cccc(C(=O)NCCCCCCOc4cccc5c4C(=O)N(C4CCC(=O)NC4=O)C5=O)c3)cc2)[nH]c2c(C#N)cnn2c1=O` (centres unmarked) [Compound 23b, 3-(6-{[4-(3-Cyano-6-isopropyl-7-oxo-4,7-dihydropyrazolo[1,5-a]pyrimidin-5-yl)phenethyl](methyl)-amino}hexyl)-N-(6-{[2-(2,6-dioxopiperidin-3-yl)-1,3-dioxoindolin-4-yl]oxy}hexyl)benzamide Hydrochloride], for which the “neurite outgrowth-promoting activity, overall assessment” value in test [1] (N2a cells (Fig. 21(B))) was “remarkable neurite outgrowth-promoting activity”. Besides, the “time-dependent neurite outgrowth activity (number of neurite cells)” value in test [1] (N2a cells, 0.02 µM, 24, 48 and 72 hours (Fig. 21(D))) is recorded as “increased the number of neurite cells in a time-dependent manner”. Also, in test [1] (N2a cells), the neurite outgrowth entry is listed as “promoted neurite outgrowth” and the “dose-dependent neurite outgrowth activity” value is reported as “promoted neurite outgrowth”. In test [1] (N2a cells, Hydrochloride), the “neurite outgrowth-promoting activity, comparison between compounds” value was “superior to those of the para-substituent compounds 20a and 23a; also recorded: slightly better than that of the polyethylene linker compound 20b”. For the same molecule, the KDM5A inhibitory activity result in test [2] is on record as “strongly inhibited KDM5A”. Also, in test [3], the HDAC1 inhibitory activity entry is “without affecting HDAC1”. The “KDM5A levels on co-treatment with proteasome inhibitor MG-132” value in test [4] (24 h co-treatment with MG-132 (Fig. 25(C), 25(D))) was “disturbed by the proteasome inhibitor MG-132”. Besides, the KDM5A levels entry in test [4] (24 h treatment (Fig. 25(A), 25(B))) is “decreased KDM5A levels in a dose-dependent manner”. Further, in test [5], the H3K4me3 levels result was “dose-dependent accumulation of H3K4me3 levels”. Further, the H3K27Ac levels result in test [6] is recorded as “upregulated H3K27Ac levels”.
On to `O=C1CCC(N2C(=O)c3ccccc3C2=O)C(=O)N1` (centres unmarked) [Compound 26, thalidomide, reference compound], for which the “dose-dependent neurite outgrowth activity” value in test [1] (N2a cells) was “did not show strong neurite outgrowth activity relative to Compounds 20b and 23b”.
